Data published in patent US20180303830A1, “CANCERS EXPRESSING CCR5 AND METHODS OF TREATMENT OF SAME” (THOMAS JEFFERSON UNIVERSITY, priority 2015, published 2018).

What was measured:
SUM159 cells [1] = test: Phospho-γH2AX Western-blot of doxorubicin induced DNA damage in SUM159 cells; type: cell-based, human; conditions: for doxorubicin induced phospho-γH2AX (DNA damage): 100 μM, SUM159 cells, doxorubicin treatment; for effect on CCR5-mediated DNA repair (phospho-γH2AX western-blot and DNA repair reporter assay): breast cancer cells overexpressing CCR5, doxorubicin and γ-radiation induced DNA damage
From the text: The chemokine receptor CCR5 is normally expressed on the surface of immune cells and served as HIV co-receptor. […] Compared with CCR5− cells, the CCR5+ cells were enriched with DNA damage/repair gene signature. […] Based on the existing theory that the resistance of cancer cells to the chemotherapy and radiation therapy caused by the existence of cancer stem cells, the inhibition of CCR5 by CCR5 antagonists will sensitize the response of breast cancer cells to chemotherapy and radiation therapy, therefore increase the efficiency of DNA damage inducing chemotherapy treatment for CCR5 expressing cancers.
FIG. 9. […] FIG. 9A The CCR5 stable-transfected and vector-control SUM159 cells were illuminated with 6.5 Gy of γ-radiation. The samples were collected at 0.5, 3 and 24 hours after y-radiation. The recruitment of phosphor-γH2AX and the reduction of abundance were faster in CCR5-transfected cells than vector-control cells. FIG. 9B The CCR5 stable-transfected and vector-control SUM159 cells were treated with doxorubicin. […] FIG. 9C CCR5 antagonist increased DNA damage in SUM159 cells. SUM159 cells treated with CCR5 antagonist, Maraviroc and Vicriviroc, both at 100 μM. DNA damage was induced by doxorubicin treatment. There are more doxorubicin induced phospho-γH2AX in Marviroc and Vicriviroc treated groups.

SUM159 cells [2] = test: Lung metastasis of SUM159 cells in SCID mice, photon flux (IVIS); type: in vivo
From the text: The CCR5 antagonist, Maraviroc, was previously approved by the US Food and Drug Administration (FDA) for the use in treatment-nave adult […] with CCR5-trophic HIV. In order to determine the role endogenous CCR5 within SUM159 cells in lung metastasis, cells were introduced into SCID immune deficient mice, and tumor volume characterized using the IVIS system. […] (p<0.0001).
FIG. 7. Endogenous CCR5 promotes lung metastases in mice. FIG. 7A Representative timed photon emission of mice injected with SUM159 cells treated with either control or Maraviroc (at 14 mg/kg mouse body, time as shown in weeks). FIG. 7B Mean±SEM of photon flux for 6 animals in control group and 7 animals in maraviroc treatment group shown in 5 weeks. Maraviroc treatment reduces mean lung tumor volume by 98% which detected by photon flux ((3.01±1.16)×10^7 vs (1.05±0.44)×10^8, p=0.063 with Mann-Whitney Test).

FC-IBC-02 cells = test: Boyden chamber migration and invasion assay in FC-IBC-02 cells; type: cell-based, human; conditions: 100 μM, 48 hrs, compared to control; for invasion of FC-IBC-02 cells: matrigel-coated membrane; for migration of FC-IBC-02 cells: noncoated membrane
Experimental: The effects of CCR5 antagonists (Maraviroc and Vicriviroc) on cell migration and invasion in vitro were examined using matrigel-coated Boyden chamber assay in FC-IBC-02 cells, which are triple-negative, basal-like, cancer stem cell phenotype, and rapidly developed primary tumors and metastasis in vivo. Cells were treated by Maraviroc and Vicriviroc at 100 μM and support the conclusion that CCR5 is highly expressed in basal-like human IBC cells.
In FIG. 3, CCR5 antagonists Maraviroc and Vicriviroc suppress the migration and invasion of FC-IBC-02 cells. FIGS. 3A and 3B depict control and CCR5 antagonists treated cells at equal number were seeded onto the noncoated membrane (migration) and matrigel-coated membrane (invasion). After incubating 48 hrs. the cells crossed the membrane were stained with 0.05% crystal violet. FIGS. 3C and 3D, quantitation of 3A and 3B compared to controls was indicated.

[3] = system: basal-like breast cancer model; test: In vivo metastasis in a basal-like breast cancer model; parameters: species or system mice
From the text: Chemokine CCL5 and its receptor CCR5 play a significant role in cancer progression and metastasis. Metastasis is the primary cause of death in patients with breast cancer. No effective treatments currently exist that are directed specifically to the metastatic process. There is evidence that the CCR5 receptor is expressed in a subset of human breast cancers. Importantly, embodiments disclosed herein support that CCR5 inhibitors previously developed and FDA approved for treatment of HIV, can effectively block breast cancer metastasis in preclinical models, thereby providing for an effective treatment of said metastatic breast cancers. The repurposing of drugs for alternative use in cancer metastasis, drugs that were previously approved by the FDA, may provide a more rapid solution for this deadly disease. Indeed, CCR5 inhibition by the FDA approved CCR5 antagonists Maraviroc and Vicriviroc reduced in vivo metastasis in a basal-like breast cancer model.
Indeed, in studies described herein, CCR5 is sufficient to induce invasiveness of breast cancer cells into matrigel, and metastasis to the lungs of mice. Accordingly, two distinct CCR5 inhibitors, maraviroc and vicriviroc, blocked CCR5 signaling and thereby block migration, invasion and metastasis in mice. […] The dose of CCR5 inhibitor used in these mouse models was the same as the dose used in patients for HIV.

Compound | doxorubicin induced phospho-γH2AX (DNA damage) (SUM159 cells [1]) | effect on CCR5-mediated DNA repair (phospho-γH2AX western-blot and DNA repair reporter assay) (SUM159 cells [1]) | photon flux, Mean±SEM (SUM159 cells [2]; 14 mg/kg, 5 weeks, 7 animals, p=0.063 Mann-Whitney vs control) | reduction of mean lung tumor volume detected by photon flux (SUM159 cells [2]; 14 mg/kg, 5 weeks, vs control) | increase in breast cancer lung metastases (photon flux) in the control group compared to the treated group (SUM159 cells [2]; SUM159 cells in SCID mice, administered orally) | percentage of mice with detectable lung metastases (SUM159 cells [2]; SUM159 cells in SCID mice, administered orally, p<0.0001) | invasion of FC-IBC-02 cells (FC-IBC-02 cells) | migration of FC-IBC-02 cells (FC-IBC-02 cells) | in vivo metastasis [3]
Cc1nnc(C(C)C)n1[C@@H]1C[C@H]2CC[C@@H](C1)N2CC[C@H](NC(=O)C1CCC(F)(F)CC1)c1ccccc1 [Maraviroc, 4,4-difluoro-N-{(1S)-3-[3-(3-isopropyl-5-methyl-4H-1,2,4-triazol-4-yl)-8-azabicyclo[3.2.1]oct-8-yl]-1-phenylpropyl}cyclohexanecarboxamide] | more | abolished these effects | (3.01±1.16)×10^7 | 98% | 15 fold | significantly reduced | suppress | suppress | reduced
COCC(c1ccc(C(F)(F)F)cc1)N1CCN(C2(C)CCN(C(=O)c3c(C)ncnc3C)CC2)C[C@@H]1C (stereo partly drawn) [Vicriviroc, 5-({4-[(3S)-4-{2-methoxy-1-[4-(trifluoromethyl)phenyl]ethyl}-3-methylpiperazin-1-yl]-4-methylpiperidin-1-yl}carbonyl)-4,6-dimethylpyrimidine] | more | abolished these effects | – | – | – | – | suppress | suppress | reduced
